Measured values from patent publication US20080009418A1, “Selective Inhibitors” (Alchemia LTD., priority 2004, published 2008).

Experiments:
Human δ-opioid (DOP) = target: T1, Human δ-opioid (DOP) (Homo sapiens, UniProt P41143); assay: Radioligand binding, human δ-opioid (DOP) membranes, FlashPlate, [3H]-Bremazocine; settings: compound at 10 μM, [3H]-Bremazocine
T1 construct: purchased Perkin Elmer Biosignal
Method in brief: (§1)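 Cloned human receptor membranes were coated onto FlashPlate wells and incubated with radioligand and compound (added from a 0.5 mM DMSO daughter plate) for 1 hour at room temperature in the dark. Scintillation counting gave percent inhibition, with DMSO defining total and reference ligand defining non-specific binding.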

Human κ-Opioid (KOP) = target: T2, Human κ-Opioid (KOP) (Homo sapiens, UniProt P41145); assay: Radioligand binding, human κ-opioid (KOP) membranes, filtration, [3H]-Diprenorphine; settings: compound at 10 μM, [3H]-Diprenorphine
T2 construct: purchased Perkin Elmer Biosignal
Method in brief: (§2)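 Percent inhibition of radioligand binding measured on recombinant human membranes: NK1 with [125I]-Substance P, KOP with [3H]-Diprenorphine. Incubation 1 h at room temperature, then harvest onto 0.3% PEI-soaked filters, cold Tris-HCl pH 7.4 washes and scintillation counting; non-specific binding from reference ligand wells.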

Human Melanocortin (MC3) = target: T3, Human Melanocortin (MC3) (Homo sapiens, UniProt P41968); assay: Radioligand binding, human melanocortin MC3 membranes, FlashPlate, [125I]-NDP-αMSH; settings: compound at 10 μM, [125I]-NDP-αMSH
T3 construct: purchased Perkin Elmer Biosignal
Method in brief: as §1

Human Melanocortin (MC4) = target: T4, Human Melanocortin (MC4) (Homo sapiens, UniProt P32245); assay: Radioligand binding, human melanocortin MC4 membranes, FlashPlate, [125I]-NDP-αMSH; settings: compound at 10 μM, [125I]-NDP-αMSH
T4 construct: purchased Perkin Elmer Biosignal
Method in brief: as §1

Human melanocortin (MC5) = target: T5, Human melanocortin (MC5) (Homo sapiens, UniProt P33032); assay: Radioligand binding, human melanocortin MC5 membranes, FlashPlate, [125I]-NDP-αMSH; settings: compound at 10 μM, [125I]-NDP-αMSH
T5 construct: purchased Perkin Elmer Biosignal
Method in brief: as §1

[1] = target: T6, Human melanin-concentrating hormone (MCH1) (Homo sapiens, UniProt Q99705); assay: Radioligand binding, human melanin-concentrating hormone MCH1 membranes, FlashPlate, [125I]-S36057; settings: compound at 10 μM
T6 construct: purchased Perkin Elmer Biosignal
Method in brief: as §1

Human μ-opioid (MOP) = target: T7, Human μ-opioid (MOP) (Homo sapiens, UniProt P35372); assay: Radioligand binding, human μ-opioid (MOP) membranes, FlashPlate, [3H]-Naloxone; settings: compound at 10 μM, [3H]-Naloxone
T7 construct: purchased Perkin Elmer Biosignal
Method in brief: as §1

Human neurokinin (NK1) = target: T8, Human neurokinin (NK1) (Homo sapiens, UniProt P25103); assay: Radioligand binding, human neurokinin NK1 membranes, filtration, [125I]-Substance P; settings: compound at 10 μM, [125I]-Substance P
T8 construct: purchased Perkin Elmer Biosignal
Method in brief: as §2

[2] = target: T9, Human neuropeptide Y (NPY-Y1) (Homo sapiens, UniProt P25929); assay: Radioligand binding, human neuropeptide Y NPY-Y1 membranes, FlashPlate, [125I]-PYY; settings: compound at 10 μM, [125I]-PYY
T9 construct: purchased Perkin Elmer Biosignal
T9 sequence (P25929 1-384): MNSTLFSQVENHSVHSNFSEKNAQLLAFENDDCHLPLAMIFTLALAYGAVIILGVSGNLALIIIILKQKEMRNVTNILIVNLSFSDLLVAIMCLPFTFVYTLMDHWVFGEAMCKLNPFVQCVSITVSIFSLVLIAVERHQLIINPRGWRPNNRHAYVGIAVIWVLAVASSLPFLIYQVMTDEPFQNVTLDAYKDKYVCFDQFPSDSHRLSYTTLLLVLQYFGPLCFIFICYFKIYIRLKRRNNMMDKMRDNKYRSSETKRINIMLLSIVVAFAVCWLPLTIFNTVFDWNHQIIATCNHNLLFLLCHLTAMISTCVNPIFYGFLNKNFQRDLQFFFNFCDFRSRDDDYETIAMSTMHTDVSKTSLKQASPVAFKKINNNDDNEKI
Method in brief: as §1

Human opioid (ORL1) = target: T10, Human opioid (ORL1) (Homo sapiens, UniProt P41146); assay: Radioligand binding, human opioid ORL1 membranes, FlashPlate, [125I]-Nociceptin; settings: compound at 10 μM, [125I]-Nociceptin
T10 construct: purchased Perkin Elmer Biosignal
Method in brief: as §1

Mouse urotensin (mUR2) = target: T11, Mouse urotensin (mUR2) (Mus musculus, UniProt Q8VIH9); assay: Radioligand binding, mouse urotensin mUR2 membranes, FlashPlate, [125I]-Urotensin II; settings: compound at 10 μM, [125I]-Urotensin II
T11 construct: purchased Perkin Elmer Biosignal
T11 sequence (Q8VIH9 1-385): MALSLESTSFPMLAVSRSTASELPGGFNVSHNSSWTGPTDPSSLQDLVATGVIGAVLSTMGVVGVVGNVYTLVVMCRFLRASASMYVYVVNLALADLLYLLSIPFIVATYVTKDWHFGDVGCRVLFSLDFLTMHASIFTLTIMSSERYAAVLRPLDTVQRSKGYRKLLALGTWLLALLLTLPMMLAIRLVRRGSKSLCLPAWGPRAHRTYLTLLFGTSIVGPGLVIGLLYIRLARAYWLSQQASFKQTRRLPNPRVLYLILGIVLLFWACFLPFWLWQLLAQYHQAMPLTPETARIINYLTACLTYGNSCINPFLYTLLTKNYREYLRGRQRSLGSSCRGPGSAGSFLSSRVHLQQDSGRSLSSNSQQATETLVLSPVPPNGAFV
Method in brief: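 Cloned mouse urotensin (mUR2) receptor membranes from Perkin Elmer Biosignal were immobilized in FlashPlate microplates using a proprietary coating. Each well got 19.5 μl buffer, then 0.5 μl of DMSO, reference ligand, or compound. Adding 5 μl of [125I]-Urotensin II, diluted to 5× final concentration in binding buffer, started binding. Plates were sealed with TopSeal-A and incubated 1 hour at room temperature in the dark. Wells were counted for 30 seconds each on a TopCount after a 60-second delay, and percentage inhibition was calculated.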

T10 sequence (P41146 whole entry): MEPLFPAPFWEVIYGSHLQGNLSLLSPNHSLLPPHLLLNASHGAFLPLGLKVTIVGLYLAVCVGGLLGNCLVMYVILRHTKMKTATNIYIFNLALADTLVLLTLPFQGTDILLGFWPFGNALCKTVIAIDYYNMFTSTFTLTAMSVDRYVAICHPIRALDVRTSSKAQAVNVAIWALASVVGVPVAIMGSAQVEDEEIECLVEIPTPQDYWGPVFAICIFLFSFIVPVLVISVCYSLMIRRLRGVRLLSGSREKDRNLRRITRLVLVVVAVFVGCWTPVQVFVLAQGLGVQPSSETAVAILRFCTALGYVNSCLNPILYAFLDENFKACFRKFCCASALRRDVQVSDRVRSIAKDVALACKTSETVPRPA
T8 sequence (P25103 whole entry): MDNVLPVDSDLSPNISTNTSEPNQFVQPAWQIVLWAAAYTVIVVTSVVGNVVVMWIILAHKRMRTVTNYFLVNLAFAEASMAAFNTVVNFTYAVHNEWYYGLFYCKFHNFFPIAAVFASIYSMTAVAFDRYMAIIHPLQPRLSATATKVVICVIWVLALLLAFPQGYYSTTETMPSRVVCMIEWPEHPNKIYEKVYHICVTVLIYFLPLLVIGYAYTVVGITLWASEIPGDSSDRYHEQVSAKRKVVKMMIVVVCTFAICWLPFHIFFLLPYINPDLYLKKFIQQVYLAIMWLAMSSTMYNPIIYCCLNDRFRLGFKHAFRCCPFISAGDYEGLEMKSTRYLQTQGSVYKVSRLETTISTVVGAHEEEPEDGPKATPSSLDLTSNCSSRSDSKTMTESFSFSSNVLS
T4 sequence (P32245 whole entry): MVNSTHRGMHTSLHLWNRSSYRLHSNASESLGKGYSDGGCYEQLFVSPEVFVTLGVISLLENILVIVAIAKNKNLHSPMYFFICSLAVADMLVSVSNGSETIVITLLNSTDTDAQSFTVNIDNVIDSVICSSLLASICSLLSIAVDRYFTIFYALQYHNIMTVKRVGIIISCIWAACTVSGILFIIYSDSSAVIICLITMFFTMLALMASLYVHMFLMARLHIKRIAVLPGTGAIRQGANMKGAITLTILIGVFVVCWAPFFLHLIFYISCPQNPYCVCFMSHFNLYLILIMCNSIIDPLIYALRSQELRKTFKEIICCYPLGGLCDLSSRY
T7 sequence (P35372 whole entry): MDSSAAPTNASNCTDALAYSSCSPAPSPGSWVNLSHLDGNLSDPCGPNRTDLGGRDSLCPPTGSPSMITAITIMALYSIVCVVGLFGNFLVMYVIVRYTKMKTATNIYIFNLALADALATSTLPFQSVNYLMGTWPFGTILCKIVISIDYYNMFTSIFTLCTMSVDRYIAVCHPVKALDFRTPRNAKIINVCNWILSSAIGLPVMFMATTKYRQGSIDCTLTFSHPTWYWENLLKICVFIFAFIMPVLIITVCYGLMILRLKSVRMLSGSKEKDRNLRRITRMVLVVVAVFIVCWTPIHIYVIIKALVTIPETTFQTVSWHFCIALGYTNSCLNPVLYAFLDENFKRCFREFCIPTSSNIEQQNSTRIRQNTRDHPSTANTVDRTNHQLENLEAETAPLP
T6 sequence (Q99705 whole entry): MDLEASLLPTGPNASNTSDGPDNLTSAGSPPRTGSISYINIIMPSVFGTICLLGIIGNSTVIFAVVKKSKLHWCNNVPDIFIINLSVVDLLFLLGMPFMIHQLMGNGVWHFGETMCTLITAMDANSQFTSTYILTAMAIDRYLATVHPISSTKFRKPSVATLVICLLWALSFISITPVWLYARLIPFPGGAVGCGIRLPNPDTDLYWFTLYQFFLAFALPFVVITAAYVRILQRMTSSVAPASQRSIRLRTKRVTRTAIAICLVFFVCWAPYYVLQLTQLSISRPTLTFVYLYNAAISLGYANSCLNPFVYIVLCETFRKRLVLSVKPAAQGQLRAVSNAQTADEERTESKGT
T2 sequence (P41145 whole entry): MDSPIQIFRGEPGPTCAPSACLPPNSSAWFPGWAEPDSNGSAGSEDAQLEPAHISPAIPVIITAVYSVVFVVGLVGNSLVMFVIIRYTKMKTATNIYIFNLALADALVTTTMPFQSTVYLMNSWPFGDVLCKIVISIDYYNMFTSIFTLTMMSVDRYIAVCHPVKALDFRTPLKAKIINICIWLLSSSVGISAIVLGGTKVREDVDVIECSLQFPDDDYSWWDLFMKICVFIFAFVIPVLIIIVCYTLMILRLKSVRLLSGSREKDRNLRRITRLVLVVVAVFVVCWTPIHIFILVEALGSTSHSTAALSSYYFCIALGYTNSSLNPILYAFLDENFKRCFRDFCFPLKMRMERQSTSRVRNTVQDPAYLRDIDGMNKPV
T1 sequence (P41143 whole entry): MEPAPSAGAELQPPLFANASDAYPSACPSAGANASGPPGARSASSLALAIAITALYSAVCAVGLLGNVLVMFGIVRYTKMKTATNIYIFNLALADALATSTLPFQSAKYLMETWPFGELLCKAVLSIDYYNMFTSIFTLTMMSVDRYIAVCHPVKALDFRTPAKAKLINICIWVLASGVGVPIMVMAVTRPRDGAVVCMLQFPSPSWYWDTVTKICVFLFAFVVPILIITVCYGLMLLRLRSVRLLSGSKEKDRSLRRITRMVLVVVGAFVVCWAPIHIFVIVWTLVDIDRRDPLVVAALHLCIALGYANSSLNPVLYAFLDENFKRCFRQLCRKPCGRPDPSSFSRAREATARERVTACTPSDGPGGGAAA
T5 sequence (P33032 whole entry): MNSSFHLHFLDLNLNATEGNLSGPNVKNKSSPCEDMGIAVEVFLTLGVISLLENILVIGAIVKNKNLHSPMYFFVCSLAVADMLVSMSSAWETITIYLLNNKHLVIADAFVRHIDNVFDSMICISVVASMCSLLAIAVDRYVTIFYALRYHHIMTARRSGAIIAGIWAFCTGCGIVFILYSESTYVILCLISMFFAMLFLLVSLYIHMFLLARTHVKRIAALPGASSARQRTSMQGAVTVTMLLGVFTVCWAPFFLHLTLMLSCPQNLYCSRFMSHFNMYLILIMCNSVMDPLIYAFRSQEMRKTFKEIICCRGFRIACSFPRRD
T3 sequence (P41968 whole entry): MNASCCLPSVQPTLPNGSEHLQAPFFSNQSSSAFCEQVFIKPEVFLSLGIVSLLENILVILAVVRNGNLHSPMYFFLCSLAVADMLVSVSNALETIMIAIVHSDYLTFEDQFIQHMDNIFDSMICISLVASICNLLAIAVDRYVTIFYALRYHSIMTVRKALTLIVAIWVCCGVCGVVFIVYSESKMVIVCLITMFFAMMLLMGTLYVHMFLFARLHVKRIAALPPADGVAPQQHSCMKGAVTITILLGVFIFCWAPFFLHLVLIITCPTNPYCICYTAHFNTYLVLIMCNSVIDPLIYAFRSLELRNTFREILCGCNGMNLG

N=C(N)NCC(=O)NC1C(OCc2ccc(Cl)cc2)OC(COCc2ccccc2)C(O)C1OCc1ccc(-c2ccccc2)cc1 (stereo not shown) [compound 424]
A1: inhibition of radioligand binding (Human δ-opioid (DOP); human DOP membranes): − (“−” indicates less than 50% inhibition at 10 μM)
A2: inhibition of radioligand binding (Human κ-Opioid (KOP); human KOP membranes): − (“−” indicates less than 50% inhibition at 10 μM)
A3: inhibition of radioligand binding (Human Melanocortin (MC3); human MC3 membranes): + (“+” indicates greater than 50% inhibition at 10 μM)
A4: inhibition of radioligand binding (Human Melanocortin (MC4); human MC4 membranes): + (“+” indicates greater than 50% inhibition at 10 μM)
A5: inhibition of radioligand binding (Human melanocortin (MC5); human MC5 membranes): + (“+” indicates greater than 50% inhibition at 10 μM)
A6: inhibition of radioligand binding ([1]; [125I]-S36057, human MCH1 membranes): − (“−” indicates less than 50% inhibition at 10 μM)
A7: inhibition of radioligand binding (Human μ-opioid (MOP); human MOP membranes): − (“−” indicates less than 50% inhibition at 10 μM)
A8: inhibition of radioligand binding (Human neurokinin (NK1); human NK1 membranes): + (“+” indicates greater than 50% inhibition at 10 μM)
A9: inhibition of radioligand binding ([2]; human NPY-Y1 membranes): − (“−” indicates less than 50% inhibition at 10 μM)
A10: inhibition of radioligand binding (Human opioid (ORL1); human ORL1 membranes): − (“−” indicates less than 50% inhibition at 10 μM)
A11: inhibition of radioligand binding (Mouse urotensin (mUR2); mouse mUR2 membranes): − (“−” indicates less than 50% inhibition at 10 μM)

COCC1OC(OCc2ccccc2)C(NC(=O)CCCN)C(OCc2ccc3ccccc3c2)C1O (stereo not shown) [compound 192]
A1: inhibition of radioligand binding (Human δ-opioid (DOP); FlashPlate): − (“−” indicates less than 50% inhibition at 10 μM)
A2: inhibition of radioligand binding (Human κ-Opioid (KOP); filtration): − (“−” indicates less than 50% inhibition at 10 μM)
A3: inhibition of radioligand binding (Human Melanocortin (MC3); FlashPlate): − (“−” indicates less than 50% inhibition at 10 μM)
A4: inhibition of radioligand binding (Human Melanocortin (MC4); FlashPlate): − (“−” indicates less than 50% inhibition at 10 μM)
A5: inhibition of radioligand binding (Human melanocortin (MC5); FlashPlate): + (“+” indicates greater than 50% inhibition at 10 μM)
A6: inhibition of radioligand binding ([1]; [125I]-S36057, FlashPlate): − (“−” indicates less than 50% inhibition at 10 μM)
A7: inhibition of radioligand binding (Human μ-opioid (MOP); FlashPlate): − (“−” indicates less than 50% inhibition at 10 μM)
A8: inhibition of radioligand binding (Human neurokinin (NK1); filtration): + (“+” indicates greater than 50% inhibition at 10 μM)
A9: inhibition of radioligand binding ([2]; FlashPlate): − (“−” indicates less than 50% inhibition at 10 μM)
A10: inhibition of radioligand binding (Human opioid (ORL1); FlashPlate): − (“−” indicates less than 50% inhibition at 10 μM)
A11: inhibition of radioligand binding (Mouse urotensin (mUR2); FlashPlate): − (“−” indicates less than 50% inhibition at 10 μM)

CO[C@H]1[C@H](O)[C@@H](COCc2ccc(-c3ccccc3)cc2)OC(OCCc2ccccc2)[C@@H]1NC(=O)CCNC(=N)N (stereo partly shown) [compound 110]
A1 radioligand binding, percentage inhibition (Human δ-opioid (DOP)): − (“−” indicates less than 50% inhibition at 10 μM)
A2 radioligand binding, percentage inhibition (Human κ-Opioid (KOP)): − (“−” indicates less than 50% inhibition at 10 μM)
A3 radioligand binding, percentage inhibition (Human Melanocortin (MC3)): − (“−” indicates less than 50% inhibition at 10 μM)
A4 radioligand binding, percentage inhibition (Human Melanocortin (MC4)): + (“+” indicates greater than 50% inhibition at 10 μM)
A5 radioligand binding, percentage inhibition (Human melanocortin (MC5)): + (“+” indicates greater than 50% inhibition at 10 μM)
A6 radioligand binding, percentage inhibition ([1]; [125I]-S36057): − (“−” indicates less than 50% inhibition at 10 μM)
A7 radioligand binding, percentage inhibition (Human μ-opioid (MOP)): − (“−” indicates less than 50% inhibition at 10 μM)
A8 radioligand binding, percentage inhibition (Human neurokinin (NK1)): − (“−” indicates less than 50% inhibition at 10 μM)
A9 radioligand binding, percentage inhibition [2]: − (“−” indicates less than 50% inhibition at 10 μM)
A10 radioligand binding, percentage inhibition (Human opioid (ORL1)): − (“−” indicates less than 50% inhibition at 10 μM)
A11 radioligand binding, percentage inhibition (Mouse urotensin (mUR2)): − (“−” indicates less than 50% inhibition at 10 μM)

NCCCC(=O)NC1C(OCc2ccccc2)OC(COCc2ccc(Cl)cc2)C(O)C1OCc1ccc(Cl)cc1 (stereo not shown) [compound 374]
A1: inhibition of radioligand binding, human δ-opioid (DOP) (Human δ-opioid (DOP)): − (“−” indicates less than 50% inhibition at 10 μM)
A2: inhibition of radioligand binding, human κ-opioid (KOP) (Human κ-Opioid (KOP)): − (“−” indicates less than 50% inhibition at 10 μM)
A3: inhibition of radioligand binding, human melanocortin (MC3) (Human Melanocortin (MC3)): − (“−” indicates less than 50% inhibition at 10 μM)
A4: inhibition of radioligand binding, human melanocortin (MC4) (Human Melanocortin (MC4)): + (“+” indicates greater than 50% inhibition at 10 μM)
A5: inhibition of radioligand binding, human melanocortin (MC5) (Human melanocortin (MC5)): + (“+” indicates greater than 50% inhibition at 10 μM)
A6: inhibition of radioligand binding, human melanin-concentrating hormone (MCH1) ([1]; [125I]-S36057): − (“−” indicates less than 50% inhibition at 10 μM)
A7: inhibition of radioligand binding, human μ-opioid (MOP) (Human μ-opioid (MOP)): − (“−” indicates less than 50% inhibition at 10 μM)
A8: inhibition of radioligand binding, human neurokinin (NK1) (Human neurokinin (NK1)): + (“+” indicates greater than 50% inhibition at 10 μM)
A9: inhibition of radioligand binding, human neuropeptide Y (NPY-Y1) [2]: − (“−” indicates less than 50% inhibition at 10 μM)
A10: inhibition of radioligand binding, human opioid (ORL1) (Human opioid (ORL1)): − (“−” indicates less than 50% inhibition at 10 μM)
A11: inhibition of radioligand binding, mouse urotensin (mUR2) (Mouse urotensin (mUR2)): − (“−” indicates less than 50% inhibition at 10 μM)

COC[C@H]1OC(OCc2ccc(Cl)cc2)[C@H](NC(=O)CNC(=N)N)[C@@H](OCc2cccc(O)c2)[C@@H]1O (stereo partly shown) [compound 137]
A1 radioligand binding, percentage inhibition (Human δ-opioid (DOP)): − (“−” indicates less than 50% inhibition at 10 μM)
A2 radioligand binding, percentage inhibition (Human κ-Opioid (KOP)): − (“−” indicates less than 50% inhibition at 10 μM)
A3 radioligand binding, percentage inhibition (Human Melanocortin (MC3)): − (“−” indicates less than 50% inhibition at 10 μM)
A4 radioligand binding, percentage inhibition (Human Melanocortin (MC4)): − (“−” indicates less than 50% inhibition at 10 μM)
A5 radioligand binding, percentage inhibition (Human melanocortin (MC5)): + (“+” indicates greater than 50% inhibition at 10 μM)
A6 radioligand binding, percentage inhibition ([1]; [125I]-S36057): − (“−” indicates less than 50% inhibition at 10 μM)
A7 radioligand binding, percentage inhibition (Human μ-opioid (MOP)): + (“+” indicates greater than 50% inhibition at 10 μM)
A8 radioligand binding, percentage inhibition (Human neurokinin (NK1)): − (“−” indicates less than 50% inhibition at 10 μM)
A9 radioligand binding, percentage inhibition [2]: − (“−” indicates less than 50% inhibition at 10 μM)
A10 radioligand binding, percentage inhibition (Human opioid (ORL1)): − (“−” indicates less than 50% inhibition at 10 μM)
A11 radioligand binding, percentage inhibition (Mouse urotensin (mUR2)): − (“−” indicates less than 50% inhibition at 10 μM)
